Assay results as given in EPA's ToxRefDB 2.

Tests used:
rabbit = settings: Prenatal developmental toxicity study, new zealand white, Oral, Gavage/Intubation, dose end: 18 GD
rat [1] = settings: Combined chronic toxicity/carcinogenicity, sprague dawley, Oral, Feed, dose end: 105 week, group: systemic
rat [2] = settings: Combined chronic toxicity/carcinogenicity, sprague dawley, Oral, Feed, dose end: 104 week, group: systemic
mouse [3] = settings: Carcinogenicity, cd1, Oral, [Not Specified], dose end: 18 month, group: systemic
rat [4] = settings: Subchronic oral toxicity in rodents, sprague dawley, Gavage/Intubation, dose end: 12 week, group: systemic, systemic / clinical chemistry / albumin / albumin + systemic / clinical chemistry / alkaline phosphatase (alp/alk) / alkaline phosphatase (…
rat [5] = settings: Chronic toxicity; wistar; Oral; Feed; dose end: 2 year; group: systemic; systemic / hematology / hemoglobin (hgb) / hemoglobin (hgb) + systemic / in life observation / body weight / body weight + systemic / organ …
mouse [6] = settings: Subchronic oral toxicity in rodents, cd1, Feed, dose end: 90 day, group: systemic
dog [7] = settings: Sub-acute repeat dose toxicity; other; Oral; Feed; dose end: 4 week; group: systemic; systemic / in life observation / body weight / body weight gain + systemic / in life observation / food consumption / food consumption
rat [8] = settings: Multigenerational reproductive toxicity study, sprague dawley, Oral, Feed, dose end: 2 generation
rat [9] = settings: Chronic toxicity; sprague dawley (CD); Oral; Feed; dose end: 104 week; group: systemic; systemic / in life observation / body weight / body weight + systemic / in life observation / body weight / body weight gain
dog [10] = settings: Chronic toxicity; beagle; Oral; Feed; dose end: 2 year; group: systemic; systemic / in life observation / body weight / body weight gain + systemic / in life observation / food consumption / food consumption + …
mouse [11] = settings: Carcinogenicity, cd1, Oral, Feed, dose end: 104 week, group: systemic
rat [12] = settings: Subchronic oral toxicity in rodents, wistar, Feed, dose end: 13 week, group: systemic
rat [13] = settings: Combined chronic toxicity/carcinogenicity, other, Oral, Feed, dose end: 104 week, group: systemic
[14] = group: developmental, developmental / developmental malformation / bone / supernumerary
[15] = group: developmental, developmental / developmental malformation / bone / supernumerary + developmental / developmental malformation / heart / [other] + …
[16] = group: maternal, systemic / in life observation / body weight / body weight gain + systemic / in life observation / food consumption / food consumption
[17] = systemic / clinical chemistry / aspartate aminotransferase (ast/sgot) / aspartate aminotransferase (ast/sgot)
[18] = systemic / in life observation / mortality / mortality + systemic / pathology gross / mammary gland / cyst + systemic / pathology gross / …
[19] = systemic / in life observation / clinical signs / fur (altered appearance) + systemic / in life observation / clinical signs / urine …
[20] = systemic / in life observation / food consumption / food consumption + systemic / in life observation / body weight / body weight
[21] = systemic / pathology microscopic / liver / hypertrophy
[22] = systemic / pathology microscopic / liver / hypertrophy + systemic / organ weight / liver / absolute + systemic / organ weight / liver / …
[23] = group: offspring, systemic / in life observation / body weight / offspring (pup) weight
[24] = group: parental, systemic / pathology gross / lung / foci + systemic / pathology microscopic / kidney / dilatation + systemic / pathology microscopic / …
[25] = systemic / clinical chemistry / cholesterol / cholesterol + systemic / clinical chemistry / gamma glutamyl transpeptides (gtp) / gamma …
[26] = systemic / hematology / anemia / anemia - hemolytic + systemic / hematology / hemoglobin (hgb) / hemoglobin (hgb) + systemic / hematology / …
[27] = systemic / clinical chemistry / thyroxine (t4) / thyroxine (t4), total + systemic / pathology microscopic / liver / cellular alteration + …

For `CC1(C)C(=O)N(Cl)C(=O)N1Cl` [1,3-Dichloro-5,5-dimethylhydantoin], the LEL (rabbit; [14]) was 500 mg/kg/day, the LOAEL (rabbit; [14]) was 500 mg/kg/day and the NEL (rabbit; [15]) was 100 mg/kg/day. It also gave an NOAEL (rabbit; [15]) of 100 mg/kg/day, an LEL (rabbit; [16]) of 1000 mg/kg/day and an LOAEL (rabbit; [16]) of 1000 mg/kg/day. For the same compound, the NEL (rabbit; [16]) was 500 mg/kg/day, the NOAEL (rabbit; [16]) was 500 mg/kg/day and the LEL (rat [1]; [17]) was 100 mg/kg/day. The NEL (rat [1]; [17]) was less than 100 mg/kg/day, the LOAEL (rat [1]; [18]) was 1000 mg/kg/day and the NOAEL (rat [1]; [18]) was 320 mg/kg/day. It also gave an NOAEL (rat [2]; systemic / in life observation / body weight / body weight + systemic / in life observation / body weight / body weight gain + systemic / in…) of 300 mg/kg/day, an LOAEL (rat [2]; systemic / in life observation / body weight / body weight + systemic / in life observation / body weight / body weight gain + systemic / …) of 1000 mg/kg/day and an LEL (rat [2]; [19]) of 100 mg/kg/day. It also gave an NEL (rat [2]; [19]) of less than 100 mg/kg/day, an LEL (mouse [3]; systemic / in life observation / body weight / body weight) of 320 mg/kg/day and an NEL (mouse [3]; systemic / in life observation / body weight / body weight + systemic / in life observation / food consumption / food consumption) of 100 mg/kg/day. The LOAEL (mouse [3]; [20]) was greater than 1000 mg/kg/day and the NOAEL (mouse [3]; [20]) was no less than 1000 mg/kg/day.
With `CC1=C(/C=C/C(C)=C/C=C/C(C)=C\C(=O)O)C(C)(C)CCC1` [13-cis Retinoic acid] the LEL (rat [4]) was 4 mg/kg/day, the LOAEL (rat [4]) was greater than 40 mg/kg/day and the NEL (rat [4]) was less than 4 mg/kg/day. The NOAEL (rat [4]) was no less than 40 mg/kg/day.
`COC(=O)c1c(Cl)c(Cl)c(C(=O)OC)c(Cl)c1Cl` [Chlorthal-dimethyl] showed an LEL (rat [5]) of 80 mg/kg/day, an LOAEL (rat [5]) greater than 80 mg/kg/day and an NEL (rat [5]) of 20 mg/kg/day. It also gave an NOAEL (rat [5]) of no less than 80 mg/kg/day, an LEL (mouse [6]; [21]) of 1050 mg/kg/day and an LOAEL (mouse [6]; [21]) of 1240 mg/kg/day. The NEL (mouse [6]; [22]) was 517 mg/kg/day, the NOAEL (mouse [6]; [22]) was 406 mg/kg/day and the LEL (dog [7]) was 250 mg/kg/day. The LOAEL (dog [7]) was greater than 1250 mg/kg/day, the NEL (dog [7]) was 50 mg/kg/day and the NOAEL (dog [7]) was no less than 1250 mg/kg/day. The LEL (rat [8]; [23]) was 233 mg/kg/day, the LOAEL (rat [8]; [23]) was 233 mg/kg/day and the NEL (rat [8]; [23]) was 45 mg/kg/day. It also gave an NOAEL (rat [8]; [23]) of 45 mg/kg/day, an LOAEL (rat [8]; [24]) of 233 mg/kg/day and an NOAEL (rat [8]; [24]) of 45 mg/kg/day. The LEL (rat [8]; group: parental, systemic / pathology microscopic / lung / infiltration cellular + systemic / pathology microscopic / thymus / involution) was 45 mg/kg/day, the LEL (rat [9]) was 1000 mg/kg/day and the LOAEL (rat [9]) was 1000 mg/kg/day. For the same compound, the NEL (rat [9]) was 50 mg/kg/day, the NOAEL (rat [9]) was 50 mg/kg/day and the LEL (dog [10]) was 100 mg/kg/day. It also gave an LOAEL (dog [10]) greater than 100 mg/kg/day, an NEL (dog [10]) of 15 mg/kg/day and an NOAEL (dog [10]) of no less than 100 mg/kg/day. For the same compound, the LOAEL (mouse [11]; [25]) was 1140 mg/kg/day, the NEL (mouse [11]; [25]) was 15 mg/kg/day and the NOAEL (mouse [11]; [25]) was 510 mg/kg/day. For the same compound, the LEL (mouse [11]; systemic / clinical chemistry / gamma glutamyl transpeptides (gtp) / gamma glutamyl transpeptides (gtp) + systemic / clinical chemistry / …) was 150 mg/kg/day, the LOAEL (rat [12]; [26]) was greater than 2500 mg/kg/day and the NEL (rat [12]; [26]) was 5 mg/kg/day. It also gave an NOAEL (rat [12]; [26]) of no less than 2500 mg/kg/day, an LEL (rat [12]; systemic / hematology / polychromasia / polychromasia) of 17 mg/kg/day and an LEL (rat [13]; [27]) of 10 mg/kg/day. The LOAEL (rat [13]; [27]) was 10 mg/kg/day, the NOAEL (rat [13]; [27]) was 1 mg/kg/day and the NEL (rat [13]; systemic / pathology microscopic / eye / atrophy + systemic / pathology microscopic / liver / cellular alteration + systemic / pathology …) was 1 mg/kg/day.
